This passage reports latexin gene expression and latexin expression results from US20100183585A1, “METHODS AND COMPOSITIONS FOR TREATING TUMORS AND METASTASES THROUGH THE MODULATION OF LATEXIN” (University of Kentucky Research Foundation, priority 2008, published 2010).

The test system of the test is latexin. In words: latexin mRNA by quantitative real-time PCR in leukemic cell lines after 5-aza-2′-deoxycytidine treatment. It counts as cell-based, human. The conditions noted are these: for latexin gene expression: 2 μM for 4 days. The protocol: To measure the expression of latexin in leukemic cells, quantitative real-time PCR was performed. Identical numbers (200,000) of cells were used for total RNA extraction using RNeasy Mini kit (QIAGEN, Valencia, Calif.) according to the manufacture's instructions. Isolated total RNA was reverse transcribed into cDNA using random hexamers in TaqMan® reverse transcription solution (PN N8080234), and stored at −20° C. In real-time PCR reactions, primer and probe mix for human latexin were purchased from Applied Biosystems (Foster city, CA, USA). TaqMan® human glyceraldehyde-3-phosphate dehydrogenase (GAPDH) was served as an endogenous control to normalize latexin expression. PCR reactions were set up as per manufacturer's instructions using TaqMan® universal PCR master mix (PN 4304437). Analyses of gene expression were performed in single reporter assays in an ABI PRISM 7700 sequence detection system (PE Biosystems, Foster city, CA, USA).
To examine the correlation of promoter hypermethylation and latexin gene expression, leukemia cell lines shown to have a lack of or decrease in latexin expression were subjected to 5-aza-2′-deoxycytidine treatment. Cells were plated with 2 ? M 5-aza-2′-deoxycytidine (Sigma-Aldrich; St. Louis, Mo.), and incubated for 4 days. The medium and the drug were replaced every 24 hours, and cells were harvested for RNA and DNA extraction 4 days after treatment.

SMILES strings stand for the structures.

As for `Nc1ncn([C@H]2C[C@H](O)[C@@H](CO)O2)c(=O)n1` [5-aza-2′-deoxycytidine], the latexin gene expression result reads like this: (HL-60, KG-1, SupB15 lines) “significantly up-regulated”; (K562, Molt4, CCRF-CEM, J45.01, Jurkat, U937 (completely lacked latexin expression prior to treatment)) “reactivated”. Further, the latexin expression result (human leukemia and lymphoma cell lines treated with the demethylating reagent) was “re-initiated or up-regulated”.
